Key:
Assay type in all cases: cell-based, human
[1] = system: ER negative MDA-MB231 breast cancer cells; assay: Breast cancer cell proliferation (MTT assay), MDA-MB231
Experimental: Estrogen receptor (ER) positive MCF-7, and ER negative MDA-MB231 cells were plated in 5 mM fructose or glucose for times between 8-72 h, and proliferative rates measured using MTT assay. *, p<0.05; **, p<0.01.
FIG. 5 depicts fructose-mediated increased breast cancer proliferation in accordance with an embodiment of the present invention. ER positive MCF-7, and ER negative MDA-MB231 cells were plated in a range of fructose or glucose concentrations (5-25 mM) for 72 h, after which proliferative rates were measured using an MTT assay. *, p<0.05 for concentrations between 5-25 mM fructose versus glucose.
Standard media for breast cancer cell culture contain either 5-7 mM (low) and 12-25 mM (high) glucose concentrations. Estrogen receptor (ER) positive MCF-7, and ER negative MDA-MB231 cells were cultured overnight in 2 mM glucose standard DMEM medium containing 10% fetal bovine serum prior to incubation for periods between 8, and 72 hours in standard DMEM medium containing 10% fetal bovine serum, and 5 mM glucose or 5 mM fructose.
Proliferative rates were then measured in replicate (minimum of 6) aliquot wells of the breast cancer cells grown in glucose, or fructose containing medium. […] In separate experiments, proliferative rates of the MCF-7, and MDA-MB231 breast cancer cells were compared following culture in a range of fructose, and glucose concentrations (2-25 mM) for 72 hours.

normal pancreas cells = assay: Proliferation of normal pancreas cells (BRDU-uptake, MTS); settings: 72 h
Experimental: FIG. 20 depicts a degree of increased proliferation of normal pancreatic cells in accordance with an embodiment of the present invention. Freshly resected normal pancreas tissues were mechanically and enzymatically dispersed, and cells were pre-incubated in 2 mM glucose prior to treatment with 5.5 mM glucose or fructose for 72 h. BRDU (10 μM) was added to the medium at 60 h, and BRDU-uptake quantified at 72 h.
In the course of obtaining fresh surgically resected pancreatic cancer tissue, the inventors also obtained some peripherally adjacent “normal” pancreatic tissue and normal tissue from a patient undergoing pancreas resection for complications of chronic pancreatitis. The inventors studied 5 of these “normal” pancreas tissues, and although caveats may exist given that they were derived from pancreases which were involved with another disease entity, the inventors believe they offer a useful comparator for the tumors. […] As before, BRDU (10 µM) was added, after which BRDU-uptake was quantified. In parallel experiments, when sufficient normal pancreatic issue was available, proliferative rates following 72 h incubation in the sugars were also measured using the MTS proliferation assay. […]

transketolase (TKK) = assay: Transketolase activity (NADH oxidation) in PANC-1 lysates; settings: PANC-1, 5.5 mM fructose
Experimental: FIG. 34 depicts quantitation of transketolase activity in pancreatic cancer PANC-1 cells following incubation in 2 mM glucose, 5.5 mM glucose, and 5.5 mM fructose for 24 h, 48 h, and 72 h respectively, in accordance with an embodiment of the present invention.
The inventors believe that fructose-treatment of pancreatic cancer cells led to an increase in TKK-driven nucleic acid synthesis, and thus fructose-treatment would result in an increase in either PANC-1 TKK expression and/or activity in comparison to equivalent glucose concentrations. Western blot analysis on protein lysates derived from fructose-, and glucose-treated PANC-1 cells were performed (5.5 mM fructose, and glucose for 24, and 48 h as per previous protocol) using a specific TKK antibody, and compared TKK expression in the fructose-, and glucose-treated PANC-1 cells. As depicted in FIG. 33, TKK expression at 24 h, and 48 h in protein lysates derived from 5.5 mM glucose-treated PANC-1 cells was increased in comparison to expression in 2 mM glucose-treated cells. However, highest TKK expression was observed after 5.5 mM fructose treatment at 24 h, and 48 h, and TKK levels were almost 2-fold higher in 5.5 mM fructose-treated, in comparison to 5.5 mM glucose-treated cells (p<0.01). […] After gentle mixing the absorbance of the mixture was measured at 10 min intervals for 2 h at 340 nm. Transketolase activity was then derived from the difference in absorbance at 10, and 80 minutes, and expressed as nmol/min/million cells. […] Pancreatic cancer proliferation rates were then measured using the MTS assay (FIG. 35).

Structure (SMILES): O=C(CO)[C@@H](O)[C@H](O)[C@H](O)CO [fructose]
- proliferative rates in fructose compared to glucose ([1]; MDA-MB231, 5 mM fructose vs 5 mM glucose, 8-72 h): higher proliferative rates
- proliferative rates in 5 mM fructose compared to 25 mM glucose ([1]; MDA-MB231, 72 hours, 5 mM fructose vs 5-fold higher glucose (25 mM)): higher proliferative rates
- proliferative rates, 5.5 mM glucose vs 5.5 mM fructose (normal pancreas cells): did not differ significantly
- TKK activity higher than 5.5 mM glucose-treated cells (transketolase (TKK); 24 h): 2 fold
- TKK activity higher than 5.5 mM glucose-treated cells (transketolase (TKK); 48 h): 3 fold
- TKK activity higher than 5.5 mM glucose-treated cells (transketolase (TKK); 72 h): 1.7 fold
